The results in this text go back to patent publication US11400106B2, “Methods for inhibiting microbe growth” (priority 2018, dated 2022).

The subject of one assay is E. coli MC1061. Nature of the assay: Membrane potential dissipation, DiSC3(5) fluorescence spectroscopy. Type of assay: cell-based, Escherichia coli. To be noted: E. coli grown in standard growth media or supplemented with 25 mM sodium bicarbonate; compound at MIC.
In assay [1] the test system is A. baumannii. Briefly: Murine model of systemic A. baumannii infection. Type of assay: in vivo, Acinetobacter baumannii. Conditions: mice. As to the method:
Mice were treated two-hours post-infection to allow complete organ occupancy by the injected cells.

Assay [2] relates to methicillin-resistant Staphylococcus aureus (MRSA) USA-300. Nature of the assay: Superficial skin infection model, tape-stripped mice, MRSA USA-300. Type of assay: in vivo. As to the method: (§1) In this model, an infection is established by disrupting the skin barrier through partial removal of the epidermal layer by stripping with adhesive tape and with subsequent application of the pathogen. Tape-stripped mice infected with 4×10^6 CFU/mL A. baumannii (FIG. 4A) or 4×10^6 CFU/mL methicillin-resistant Staphylococcus aureus (MRSA) USA-300 (FIG. 4B). […] This treatment regime was also conducted for the Vehicle (1.9% Boric Acid, pH 7) as a control (n=4). Tissue samples were collected at 25 hr post-infection (FIG. 4A) and 28 hr post-infection (FIG. 4B). […] (FIG. 5).

The subject of another assay is Saccharomyces cerevisiae. Briefly: MIC of pentamidine against Saccharomyces cerevisiae in YPD medium. Type of assay: cell-based. Here is the method:
Plates were incubated 24 hours and optical density read at 600 nm

Assay [3] has as its system E. coli. Briefly: Checkerboard microdilution with sodium bicarbonate against E. coli. Type of assay: cell-based, Escherichia coli. As to the method:
In the following experiments, bacterial cells were cultured in 96-well microtiter plates in cation-adjusted Mueller-Hinton Broth (MHB) for 18 h at 37° C. The main strains used were E. coli (K-12 BW25113) (placed in stationary incubator) and S. aureus (Newman Strain) (incubated at 250 r.p.m). Knockout strains (ΔtolcC and ΔychM) were used from the Keio knockout collection (Baba et al., Construction of Escherichia coli K-12 in-frame, single-gene knockout mutants: the Keio collection. Mol Syst Biol 2, 2006 0008, doi:10.1038/msb4100050 (2006)). For MIC determination and checkerboard analyses, Clinical & Laboratory Standards Institute (CLSI) protocol was used. […] DiSC3 loading of S. aureus cells was performed as previously described (Farha et al., Collapsing the proton motive force to identify synergistic combinations against Staphylococcus aureus. Chemistry & biology 20, 1168-1178, doi:10.1016/j.chembiol.2013.07.006 (2013)). CCCP concentration of 20 μM was used. pH adjustments were made by addition of HCl or NaOH. INT assay and ATP bioluminescence assays were performed as previously described (Farha et al., Collapsing the proton motive force to identify synergistic combinations against Staphylococcus aureus. Chemistry & biology 20, 1168-1178, doi:10.1016/j.chembiol.2013.07.006 (2013)). For chemical-genomic studies, the Keio library was grown overnight in cation-adjusted MHB broth, in 384-well plates. From these, treatment plates (25 mM sodium bicarbonate, or a sterile water control) were inoculated and grown for 15 hours at 37° C., in a stationary incubator. Data was normalized according to Mangat et al (Mangat et al., Rank ordering plate data facilitates data visualization and normalization in high-throughput screening. J Biomol Screen 19, 1314-1320, doi:10.1177/1087057114534298 (2014)), with gene products and GO terms mined from EcoCyc. The GFP promoter library (Keseler et al., EcoCyc: fusing model organism databases with systems biology. Nucleic Acids Res 41, D605-612, doi:10.1093/nar/gks1027 (2013)) was grown for 18 hours at ambient temperature with the same inoculation strategy as with the Keio collection. The analysis pipeline of Zaslaver et al (Zaslaver et al., A comprehensive library of fluorescent transcriptional reporters for Escherichia coli. Nat Methods 3, 623-628, doi:10.1038/nmeth895 (2006)) was used to generate maps of promoter activity, from which lists of promoters with increased or decreased activity were compiled.
The effect of sodium bicarbonate on the activity of various antibacterial agents was investigated. Clinical isolates of various bacteria were obtained from the American Type Culture Collection (“ATCC”) and the International Health Management Associates (“IHMA”). Fractional inhibitory concentration indices (FICIs) were determined by setting up standard checkerboard broth microdilution assays in 96-well microtiter plates with serially diluted 8 (or 10) concentrations of each drug (sodium bicarbonate and the antibacterial agent). The protocol for checkerboard analyses was based on the CLSI guidelines. Plates were incubated at 37° C. for 18 hours, and optical density was read at 600 nm. At least 3 replicates were done for each query compound.
The FIC index (FICI) is the sum of the two FICs. Chemical-chemical interactions with ΣFIC of less or equal to 0.5 were deemed synergistic.
As validation, three of the antibiotic agents were further tested with checkerboard analyses. Checkerboard broth microdilution assays were set up in 96-well microtiter plates with serially diluted 8 (or 10) concentrations of each compound (sodium bicarbonate and the antibiotic). The protocol for checkerboard analyses was based on the CLSI guidelines. Plates were incubated at 37° C. for 18 hours, and optical density was read at 600 nm. At least 3 replicates were done for each query compound.
For orientation: Broth dilution looks for growth in wells or tubes with falling amounts of substance.

For assay [4], the system named is A. baumannii. Briefly: Superficial skin infection model, tape-stripped mice, A. baumannii. Type of assay: in vivo, Acinetobacter baumannii. To be noted: 0.5% pentamidine topical, tissue collected 25 hr post-infection. Here is the method: as §1
Assay [5] has as its system E. coli. Nature of the assay: microbe, parasite or virus in culture. Type of assay: cell-based, Escherichia coli.
A further assay relates to S. aureus. Nature of the assay: microbe, parasite or virus in culture.
The test system of assay [6] is E. coli. Briefly: Gentamicin potency analysis with CCCP pre-treatment. Type of assay: cell-based, Escherichia coli. Conditions: 25 mM sodium bicarbonate, CCCP pre-treated cells.
Experimental: In the following experiments, bacterial cells were cultured in 96-well microtiter plates in cation-adjusted Mueller-Hinton Broth (MHB) for 18 h at 37° C. The main strains used were E. coli (K-12 BW25113) (placed in stationary incubator) and S. aureus (Newman Strain) (incubated at 250 r.p.m). […] For MIC determination and checkerboard analyses, Clinical & Laboratory Standards Institute (CLSI) protocol was used. […] DiSC3 loading of S. aureus cells was performed as previously described (Farha et al., Collapsing the proton motive force to identify synergistic combinations against Staphylococcus aureus. Chemistry & biology 20, 1168-1178, doi:10.1016/j.chembiol.2013.07.006 (2013)). CCCP concentration of 20 μM was used. pH adjustments were made by addition of HCl or NaOH. INT assay and ATP bioluminescence assays were performed as previously described (Farha et al., Collapsing the proton motive force to identify synergistic combinations against Staphylococcus aureus. Chemistry & biology 20, 1168-1178, doi:10.1016/j.chembiol.2013.07.006 (2013)). For chemical-genomic studies, the Keio library was grown overnight in cation-adjusted MHB broth, in 384-well plates. […]

Experimental for E. coli MC1061: E. coli MC1061 cells were washed twice and suspended in a buffer containing 20 mM glucose and 5 mM HEPES (pH 7.2). Final resuspension was diluted to an optical density at 600 nm of 0.085. DiSC3(5) was added at a final concentration of 1 and the dye was left to stabilize (1 hr at 37° C.). Compounds were then injected at concentrations equivalent to their MIC. Fluorescent traces were measured in a fluorimeter (Photon Technology International) at the excitation and emission wavelengths of 622 and 660 nm, respectively.
Briefly, due to the potential gradient, the dye is taken up by bacteria and accumulation in the membrane leads to a decrease in fluorescence intensity due to self-quenching. A subsequent increase in fluorescence intensity is observed only if the dye is displaced into the solution as a result of dissipation of the membrane potential.

As to `N=C(N)c1ccc(OCCCCCOc2ccc(C(=N)N)cc2)cc1` [pentamidine], the “effect on membrane potential” value with E. coli MC1061 is recorded as “dissipated the membrane potential”. Further, the results for the “potentiation of antibacterial activity in the presence of bicarbonate, on average” value in the assay with Gram-positive organisms and with Gram-negative organisms were 50 fold and 40 fold, respectively. In addition, the rescue of animals with A. baumannii [1] (50 mg/kg pentamidine IP, single dose 2 h post-infection, in the absence of novobiocin) turned out to be 80%. The “A. baumannii organ load (e.g., spleen) decrease” value with A. baumannii [1] (pentamidine alone) is “seven”. In assay [2] (0.5% pentamidine topical, tissue collected 28 hr post-infection), the “reduction in CFU/mL” value is listed as 5 log. In [2] (topical 0.5% aqueous pentamidine solution with or without bicarbonate (50 mM)), the “effect of addition of bicarbonate (50 mM) on antibacterial efficacy in clearing an MRSA infection” value is reported as “increased the antibacterial efficacy”. For the same compound, the minimum inhibitory concentration (MIC) with Saccharomyces cerevisiae (25 mM sodium bicarbonate) turned out to be 4 µg/mL; in the assay with Saccharomyces cerevisiae (50 mM sodium bicarbonate), 2 µg/mL; in the assay with Saccharomyces cerevisiae (no sodium bicarbonate), 256 µg/mL. Also, the “interaction with sodium bicarbonate (checkerboard)” value with E. coli [3] was “synergistic interaction”. Also, the “reduction in CFU/mL compared to vehicle-treated mice” value in the assay on A. baumannii [4] came to 4 log.

Regarding Gentamicin, in the assay with E. coli [5], the “Fold, E. coli” value amounted to 8. In the assay on S. aureus, the “Fold, S. aureus” value is reported as 2. In addition, the “MIC, S. aureus, MHB−” value in the assay on S. aureus (MHB in the absence of sodium bicarbonate) is recorded as 2. Further, the “MIC, S. aureus, MHB+” value in the assay with S. aureus (MHB in the presence of 25 mM sodium bicarbonate) is reported as 1. In addition, the “effect of CCCP pre-incubation on potentiation by sodium bicarbonate” value with E. coli [6] is reported as “reversed the potentiation”.

One may read the MIC as the lowest concentration that inhibits growth of the organism.
